Like-named read-outs stand apart in the source and are kept apart here.
Experiments:
[1] = test system: formation of osteoclasts in co-culture of bone marrow cells and osteoblasts; assay: Osteoclastogenesis inhibition via co-culture system (TRAP staining); assay type: cell-based, mice; details: 1 μM compound, 7 days co-culture, TRAP-positive multinucleated osteoclasts vs vehicle control; for inhibition at 1 µM: Mus musculus, Osteoclast, 168 h
Procedure: Osteoclastogenesis inhibitory effects of the compounds of the present invention were evaluated via a co-culture system (Reference: Endocrinology 137(1996), 2187 to 2190, E. Jimi et al.). A specific experimental method is as follows.
1) Preparation of Bone Marrow Cells and Osteoblasts
Femora and tibia were aseptically dissected from 6 to 8-week-old male ddY mice to harvest bone marrow cells by a conventional method using a syringe. In brief, tissues were removed from the dissected bone, the bone ends were cut off with scissors, and the bone marrow was isolated by pushing a medium-containing syringe (23G) against the one end of the cut bone. The isolated bone marrow was subjected to repeated piston movement of a syringe such that single cells were obtained (Reference: Endocrinology 123(1988), 2600 to 2602, Takahashi et al.). After removal of red blood cells within the bone marrow, the bone marrow cells recovered by centrifugation were placed in an α-MEM supplemented with 10% fetal bovine serum (FBS), followed by counting of nucleated cells and then were immediately used for a co-culture system.
2) Osteoclastogenesis Inhibition Experiment Via Co-Culture System
As the medium used for a co-culture system, a differentiation medium with the addition of differentiation factors 1α,25-dihydroxyvitamin D3 (10^−8M) and dexamethasone (10^−8M) to a-MEM supplemented with 10% FBS was used for the induction of osteoclastogenesis. First, the compounds dissolved in dimethyl sulfoxide (DMSO) at a concentration of 1 mM were diluted to 2 μM using the above-mentioned differentiation medium. As a vehicle control group, 0.2% (v/v) DMSO was added to the medium. 100 μL/well of each medium was added to 96-well plates. In addition, the above prepared bone marrow cells and osteoblasts were plated onto 96-well plates at a density of 1×10^5 cells/50 μL/well and 3×10^3 cells/50 μL/well, respectively. The total volume/well was 200 μL and the final compound concentration was 1 μM. The control group was 0.1% DMSO. The cells were cultured with exchange of the culture media with fresh media containing differentiation factors and test materials at an interval of 2 to 3 days.
7 days after culturing of cells, the formation of multinucleated osteoclasts was confirmed by microscopic examination, the medium was removed from the wells and then the cells were fixed in a 10% phosphate-buffered formalin solution. The degree of formation of mature osteoclasts was measured taking advantage of the characteristics of osteoclasts showing a positive reaction to a tartrate-resistant acid phosphatase (TRAP) staining solution. The TRAP staining solution was prepared in a manner such that naphthol AS-MS phosphate as a substrate and a coloring agent (Fast Red Violet LB salt) were dissolved in N,N-dimethylformamide, and a 0.1N NaHCO3 buffer solution containing 50 mM of tartaric acid was added thereto. Among the TRAP-positive cells under a light microscope, multinucleated osteoclasts having 6 to 7 nuclei were regarded as mature osteoclasts.
The degree of inhibition of osteoclastogenesis was calculated according to the following equation 1. The results are summarized in Table 27 below (Experiments were carried out for 4 wells/experimental group (n=4), and the results are given in terms of mean±standard deviation)
Inhibition of osteoclastogenesis(%)=(1−numbers of osteoclasts observed in experimental group/numbers of osteoclasts observed in vehicle control group)×100(%) [Equation 1]

[2] = test system: Osteoblasts (Calvarial cells); details: ICR, mouse, 72 h, 1 μM
[3] = test system: Osteoblasts (Calvarial cells); assay: Cytotoxicity test (MTT); details: 1 μM compound, 72 hours, in comparison with vehicle control

Q: Cc1ccc(Nc2nc(-n3ccnc3C(C)C)ccc2[N+](=O)[O-])cc1 [Compound 7, 2-(4-methylphenylamino)-6-[(2-isopropyl)imidazol-1-yl]-3-nitropyridine] was tested. Which inhibition at 1 µM [1] did it give?
A: The inhibition at 1 µM was 100%.

Q: What about the “Cell viability (%) Calvarial cell” value [2] of the same molecule?
A: Its value is 103%.

Q: Cc1ccc(Nc2nc(NCCc3cccnc3)ccc2[N+](=O)[O-])cc1 [Compound 10, 2-(4-methylphenylamino)-6-[2-(3-pyridyl)ethylamino]-3-nitropyridine] was tested. Which inhibition at 1 µM [1] did it give?
A: Its inhibition at 1 µM is 64%.

Q: And the “Cell viability (%) Calvarial cell” value [2]?
A: The value was 116%.

Q: Which inhibition at 1 µM [1] does the source give for Cc1ccc(Nc2nc(N3CCNCC3)ccc2[N+](=O)[O-])cc1 [Compound 12, 2-(4-methylphenylamino)-6-(piperazin-1-yl)-3-nitropyridine] here?
A: The inhibition at 1 µM was 63%.

Q: And the “Cell viability (%) Calvarial cell” value [2]?
A: Its value is 103%.

Q: Which inhibition at 1 µM [1] does the source give for COc1ccc(Nc2nc(N3CCC(N)CC3)ccc2[N+](=O)[O-])cc1 [Compound 28, 2-(4-methoxyphenylamino)-6-(4-aminopiperidino)-3-nitropyridine] here?
A: The inhibition at 1 µM was 88%.

Q: And the “Cell viability (%) Calvarial cell” value [2]?
A: Its value is 89%.

Q: For CC(C)(C)c1ccc(Nc2nc(N3CCNCC3)ccc2[N+](=O)[O-])cc1 [Compound 42, 2-[4-(t-butyl)phenylamino]-6-(piperazin-1-yl)-3-nitropyridine], which inhibition at 1 µM [1] is on record?
A: The inhibition at 1 µM was 96%.

Q: And the “Cell viability (%) Calvarial cell” value [2]?
A: Its value is 103%.

Q: Which inhibition at 1 µM [1] does the source give for CSc1ccc(Nc2nc(NCCCn3ccnc3)ccc2[N+](=O)[O-])cc1 [Compound 55, 2-[4-(methylsulfanyl)phenylamino]-6-[(3-imidazol-1-yl)propylamino]-3-nitropyridine] here?
A: The inhibition at 1 µM was 98%.

Q: And the “Cell viability (%) Calvarial cell” value [2]?
A: Its value is 105%.

Q: What does the source list for CCCCc1ccc(Nc2nc(NCCCn3ccnc3)ccc2[N+](=O)[O-])cc1 [Compound 56, 2-[4-(n-butyl)phenylamino]-6-[(3-imidazol-1-yl)propylamino]-3-nitropyridine]?
A: inhibition at 1 µM [1]: 99%; Cell viability (%) Calvarial cell [2]: 104%

Q: What does the source list for Nc1ccc(Nc2nc(N3CCOCC3)ccc2[N+](=O)[O-])cc1 [Compound 64, 2-[4-(amino)phenylamino]-6-morpholino-3-nitropyridine]?
A: inhibition at 1 µM [1]: 65%; Cell viability (%) Calvarial cell [2]: 102%

Q: How did the inhibition at 1 µM [1] turn out when Nc1ccc(Nc2nc(NCc3ccncc3)ccc2[N+](=O)[O-])cc1 [Compound 66, 2-[4-(amino)phenylamino]-6-[(4-pyridyl)methylamino]-3-nitropyridine] was run?
A: Its inhibition at 1 µM is 65%.

Q: What about the “Cell viability (%) Calvarial cell” value [2] of the same molecule?
A: The value was 107%.

Q: CC(C)c1nccn1-c1ccc([N+](=O)[O-])c(Nc2ccc(-n3ccnc3)cc2)n1 [Compound 92, 2-[4-(imidazol-1-yl)phenylamino]-6-[(2-isopropyl)imidazol-1-yl]-3-nitropyridine] was tested. Which inhibition at 1 µM [1] did it give?
A: The inhibition at 1 µM was 64%.

Q: What about the “Cell viability (%) Calvarial cell” value [2] of the same molecule?
A: The value was 101%.

Q: Which inhibition at 1 µM [1] does the source give for O=[N+]([O-])c1ccc(NCc2cccnc2)nc1Nc1ccc(-n2ccnc2)cc1 [Compound 93, 2-[4-(imidazol-1-yl)phenylamino]-6-[(3-pyridyl)methylamino]-3-nitropyridine] here?
A: The inhibition at 1 µM was 66%.

Q: What about the “Cell viability (%) Calvarial cell” value [2] of the same molecule?
A: Its value is 98%.

Q: For Cc1nc(-c2ccc(Nc3nc(NCC(C)C)ccc3[N+](=O)[O-])cc2)cs1 [Compound 134, 2-[4-(2-methylthiazol-4-yl)phenylamino]-6-(isobutylamino)-3-nitropyridine], which inhibition at 1 µM [1] is on record?
A: Its inhibition at 1 µM is 61%.

Q: And the “Cell viability (%) Calvarial cell” value [2]?
A: The value was 93%.

Q: With Cc1nc(-c2ccc(Nc3nc(N4CCNCC4)ccc3[N+](=O)[O-])cc2)cs1 [Compound 143, 2-[4-(2-methylthiazol-4-yl)phenylamino]-6-(piperazin-1-yl)-3-nitropyridine] as the molecule, how does the inhibition at 1 µM [1] read?
A: Its inhibition at 1 µM is 99%.

Q: What about the “Cell viability (%) Calvarial cell” value [2] of the same molecule?
A: The value was 85%.

Q: Which results are given for Cc1nc(-c2ccc(Nc3nc(N4CCC(N)CC4)ccc3[N+](=O)[O-])cc2)cs1 [Compound 144, 2-[4-(2-methylthiazol-4-yl)phenylamino]-6-(4-aminopiperidino)-3-nitropyridine]?
A: inhibition at 1 µM [1]: 100%; Cell viability (%) Calvarial cell [2]: 35%

Q: For CNc1ccc([N+](=O)[O-])c(Nc2ccc(-c3csc(C4CCCCC4)n3)cc2)n1 [Compound 151, 2-[4-(2-cyclohexylthiazol-4-yl)phenylamino]-6-(methylamino)-3-nitropyridine], which inhibition at 1 µM [1] is on record?
A: The inhibition at 1 µM was 70%.

Q: And the “Cell viability (%) Calvarial cell” value [2]?
A: Its value is 101%.

Q: How did the inhibition at 1 µM [1] turn out when CC(C)Nc1ccc([N+](=O)[O-])c(Nc2ccc(-c3csc(C4CCCCC4)n3)cc2)n1 [Compound 152, 2-[4-(2-cyclohexylthiazol-4-yl)phenylamino]-6-(isopropylamino)-3-nitropyridine] was run?
A: The inhibition at 1 µM was 85%.

Q: What about the “Cell viability (%) Calvarial cell” value [2] of the same molecule?
A: Its value is 105%.

Q: For CC(C)CNc1ccc([N+](=O)[O-])c(Nc2ccc(-c3csc(C4CCCCC4)n3)cc2)n1 [Compound 153, 2-[4-(2-cyclohexylthiazol-4-yl)phenylamino]-6-(isobutylamino)-3-nitropyridine], which inhibition at 1 µM [1] is on record?
A: Its inhibition at 1 µM is 78%.

Q: And the “Cell viability (%) Calvarial cell” value [2]?
A: Its value is 107%.

Q: For CC(C)(C)Nc1ccc([N+](=O)[O-])c(Nc2ccc(-c3csc(C4CCCCC4)n3)cc2)n1 [Compound 154, 2-[4-(2-cyclohexylthiazol-4-yl)phenylamino]-6-(t-butylamino)-3-nitropyridine], which inhibition at 1 µM [1] is on record?
A: The inhibition at 1 µM was 78%.

Q: What about the “Cell viability (%) Calvarial cell” value [2] of the same molecule?
A: Its value is 116%.

Q: O=[N+]([O-])c1ccc(NCc2ccncc2)nc1Nc1ccc(-c2csc(C3CCCCC3)n2)cc1 [Compound 163, 2-[4-(2-cyclohexylthiazol-4-yl)phenylamino]-6-[(4-pyridyl)methylamino]-3-nitropyridine] was tested. Which inhibition at 1 µM [1] did it give?
A: Its inhibition at 1 µM is 67%.

Q: What about the “Cell viability (%) Calvarial cell” value [2] of the same molecule?
A: Its value is 99%.

Q: How did the “Osteoclastogenesis inhibition (%) 1 μM” value [1] turn out when NC1CCN(c2ccc([N+](=O)[O-])c(Nc3ccc(N4CCC(O)CC4)c(F)c3)n2)CC1 [Compound 246, 2-{[3-fluoro-4-(4-hydroxypiperidino)]phenylamino}-6-(4-aminopiperidino)-3-nitropyridine] was run?
A: Its value is 80%.

Q: What about the “Cell viability (%) Calvarial cell” value [3] of the same molecule?
A: Its value is 105%.

Reference: patent US20110306606A1, “NOVEL 2,6-SUBSTITUTED-3-NITROPYRIDINE DERIVATIVE, METHOD FOR PREPARING SAME, AND PHARMACEUTICAL COMPOSITION INCLUDING SAME” (priority 2008, published 2011)
